This passage reports IC50 and Ratio IC50 results from ChEMBL document CHEMBL1770057, “Synthesis and antibacterial activity of alaremycin derivatives for the porphobilinogen synthase” (Bioorg Med Chem Lett, 2011).

Experiment [1] can be described thus: Inhibition of Pseudomonas fluorescens porphobilinogen synthase by PBGS assay.
The next experiment concerns Pseudomonas fluorescens. In words: Ratio of IC50 of Alaremycin to IC50 of compound for Pseudomonas fluorescens porphobilinogen synthase.

Structures are written as SMILES.

What is called IC50 is the midpoint of a concentration-inhibition curve. A low value points to inhibition by little substance. The compound `C=C(NC(=O)CC(F)(F)F)C(=O)CCC(=O)O` returned an IC50 in experiment [1] of 900 µM.

Take `C=C(NC(=O)CCC(F)(F)F)C(=O)CCC(=O)O`: the IC50 in experiment [1] amounted to 51 µM. In addition, the Ratio IC50 in the experiment on Pseudomonas fluorescens was determined as 50.

`O=C(O)CCC(=O)CNC(=O)CCC(F)(F)F`: the concentration for half-maximal inhibition (IC50) in experiment [1] turned out to be 1300 µM.

Consider `O=C(O)CCC(=O)CNC(=O)CC(F)(F)F`, for which half-maximal inhibition in experiment [1] (IC50) required 500 µM.

With `CC(=O)N[C@@H](C)C(=O)CCC(=O)O`, the IC50 in experiment [1] came out at 1100 µM. Against the preceding compound, the IC50 is about 2.2-fold higher.

In turn, `O=C(O)CCC(=O)CNC(=O)C(F)(F)F` showed a half-inhibitory concentration (IC50) in experiment [1] of 8000 µM. This IC50 is about 7.3-fold higher than that of the compound before.

As to `C[C@H](NC(=O)C(F)(F)F)C(=O)CCC(=O)O`, the IC50 in experiment [1] amounted to 3000 µM.

Regarding `C=C(NC(C)=O)C(=O)CCC(=O)O` [ALAREMYCIN], the 50% inhibitory concentration (IC50) in experiment [1] stood at 2600 µM.

`CC(=O)N[C@H](C)C(=O)CCC(=O)O` [ALAREMYCIN 2]: inhibition in experiment [1] was half-maximal at 700 µM (IC50).

Regarding `C[C@@H](NC(=O)C(F)(F)F)C(=O)CCC(=O)O`, in experiment [1], the IC50 is 4100 µM. This IC50 is about 5.9-fold higher than that of the compound before.

For `C=C(NC(=O)C(F)(F)F)C(=O)CCC(=O)O`, in experiment [1], the IC50 stood at 22 µM. In addition, in the experiment on Pseudomonas fluorescens, the Ratio IC50 amounted to 100.

In turn, `CC(=O)NCC(=O)CCC(=O)O` yielded an IC50 in experiment [1] of 2500 µM.
